{"source": "patent US12584101B2", "about": "“Compositions and method of use for H5 competent Bifidobacterium longum subsp. Infantis” (INFINANT HEALTH, INC., priority 2018, dated 2026)", "test_system": "Blon_0881 and Blon_2343", "experiment": "qPCR gene expression of Blon_0881 and Blon_2343 relative to Blon_0393 (activation)", "assay_type": "cell-based, B. infantis", "conditions": "5, 10, 15 and 20 g/L of NAG, rest glucose to 20 g/L; stationary phase", "experimental": "In some embodiments, gene activation relates to Blon_0881 and Blon_2343 and their expression is greater than 1; that is, when the delta delta cycle threshold (2^ΔΔCt) is greater than 1, DDCT is calculated using Blon_0393, or another constitutively expressed gene as a reference. The result (activation) is the fold change (2^ΔΔCt>1) of gene expression. Determined based on the double delta CT (2^ΔΔCt) method (Livak K and Schmittgen T. (2001) Analysis of relative gene expression data using real-time quantitative PCR and the 2(−Delta Delta C(T)) Method. Methods: 25: 402-8). In other embodiments, other genes from Table 1 are used in addition to Blon_0881 and Blon_2343.\nA series of fermentations were conducted where B. infantis was grown on various concentrations of NAG and glucose. MRS broth was prepared without a carbon source. The carbon source was added at 2% of the media or 20 g/L. The carbon source was varied according to Table 5. The cells were grown to the stationary phase and spun down. The supernatant was removed and the cells lysed. RNA was extracted. The cells were tested for increase in gene expression of Blon_0881 and Blon_2343 by qPCR relative to Blon_0393. The 2^ΔΔCt was greater than 1 confirming activation for 5, 10, 15 and 20 g/L of NAG. […]"}
{"substance": "N-acetyl-glucosamine/galactosamine (NAG)", "values": [{"measurement": "2^ΔΔCt of Blon_0881 and Blon_2343 relative to Blon_0393", "value": "greater than 1"}]}
